Article PMC7785802, “Therapeutic Efficacy of a Trichinella Spiralis Paramyosin-Derived Peptide Modified With a Membrane-Targeting Signal in Mice With Antigen-Induced Arthritis” (Frontiers in Microbiology, 2020)

Assays:
[1] = system: mice with antigen-induced arthritis (AIA); assay: Histology (HE) of AIA knee joints; assay type: in vivo, mouse; conditions: for synovial histology (HE): 40 μg peptide + 25 μg mBSA intraarticular, day 3 post-AIA induction, n = 6
Description: (§1) AIA was induced in male C57BL/6J wildtype mice (8–10 weeks of age) according to a previously described protocol (Ebbinghaus et al., [2017]) with minor modifications. Briefly, the mice were intraperitoneally injected with 200 ng pertussis toxin (List Biological Laboratories, California, USA) prior to being subcutaneously immunized with 100 μg methylated bovine serum albumin (mBSA; Sigma-Aldrich, St. Louis, Missouri, USA) emulsified in Freund's complete adjuvant (Sigma-Aldrich). The immune response was boosted with identical subcutaneous mBSA immunizations at 14 and 21 days after the first immunization. At 28 days after the initial immunization, the right knee joint of each mouse was intraarticularly injected with 10 μl PBS as the control, while the left knee joint received either 10 μl PBS only (normal group), 25 μg mBSA (to induce AIA) in 10 μl PBS (AIA-only group), 40 μg modified peptide with 25 μg mBSA in 10 μl PBS (modified peptide+AIA group), or 40 μg original peptide with 25 μg mBSA in 10 μl PBS (original peptide+AIA group). Every day after AIA induction (and intraarticular peptide treatment), the difference in the joint diameter (swelling in mm) between the right and left knee joints in each mouse was assessed using a digital micrometer to evaluate the AIA severity. Each joint was measured three times and the mean diameter was calculated and recorded. […]
To assess the therapeutic effects of the peptides on AIA, the mice were euthanized on day 3 post-AIA induction. […] The degree of histopathologic tissue damage was quantified using the following previously described cumulative score for evaluating disease severity (Durigutto et al., [2013]). […] Additionally, according to the immunofluorescence protocol, tissue deposition of MAC was assessed by immunofluorescence assay with incubating rabbit anti-mouse C9 IgG (Sigma-Aldrich) at a 1:200 dilution overnight at 4°C followed by incubation with FITC-labeled goat anti-rabbit IgG (DAKO, Glostrup, Denmark) at a 1:200 dilution for an additional 60 min at room temperature (Lei et al., [2020]). […]

[2] = system: membrane attack complex (MAC); assay: MAC (C9) deposition in AIA knee joints (immunofluorescence); assay type: in vivo; conditions: 40 μg peptide + 25 μg mBSA intraarticular; day 3 post-AIA induction; anti-mouse C9 immunofluorescence; n = 6
Description: as §1, with “At 28 days after the initial immunization, the right knee joint of each mouse was intraarticularly injected with 10 μl PBS as the control, while the left knee joint received either 10 μl PBS only (normal group), 25 μg mBSA (to induce AIA) in 10 μl PBS (AIA-only group), 40 μg modified peptide with 25 μg mBSA in 10 μl PBS (modified peptide+AIA group), or 40 μg original peptide with 25 μg mBSA in 10 μl PBS (original peptide+AIA group).” left out
To assess the therapeutic effects of the peptides on AIA, the mice were euthanized on day 3 post-AIA induction. […] The degree of histopathologic tissue damage was quantified using the following previously described cumulative score for evaluating disease severity (Durigutto et al., [2013]). […]

[3] = system: normal mouse knee joint cavity; assay: Peptide retention in normal mouse joint cavities (immunofluorescence); assay type: in vivo; conditions: biotin-labeled peptide, 10 μg in 10 μl PBS intraarticular, normal mice; for staining of joint cavity after intraarticular injection: 12, 24, 48 h, streptavidin-FITC, one mouse per time point
Description: As previous studies reported, immunofluorescence assay was used to assess the retention time of the peptides in normal mouse joint cavities (Williams et al., [2004]). The normal mice were divided into original and modified peptide groups and treated with the corresponding peptides [10 μg in 10 μl PBS by intraarticular (IA) injection respectively. At 12, 24, and 48 h after injection, a single mouse from each group was randomly chosen and sacrificed under anesthesia (1% sodium pentobarbital, 50 mg/kg)]. Knee joints were dissected, fixed in 4% paraformaldehyde, and decalcified with decalcification solution (0.5 M EDTA, pH 8.0) before embedding in paraffin. Midsagittal serial sections (7 μm in thickness) were cut and peptide retention was assessed using streptavidin-FITC (eBioscience) (1:100 in PBS) followed by fluorescent microscopy (Leica).
Figure 4 Retention time of the modified peptide in the joint cavities was prolonged. The biotin-labeled original or modified peptide was injected into the knee joint and then the knee joints were dissected at 12, 24, and 48 h and probed with streptavidin-FITC in immunofluorescence assays.

C9 / MAC = conditions: previous study; ref Zhao et al., 2014; cited from earlier work
From the text: Paramyosin, a dimeric fibrillar protein, not only forms the thick myofilaments of invertebrate muscle, but also occurs on the surface of helminths and serves as a potential modulator of the host immune system by interacting with human collagen, calgranulin and so on (Zhao et al., [2014]).

| Substance | synovial histology (HE) [1] | histopathological scores ([1]; 40 μg peptide intraarticular at the time of AIA induction, cumulative score (synovial hyperplasia, leukocyte infiltration, fibrosis), no numbers given) | MAC deposition in synovial connective tissue [2] | staining of joint cavity after intraarticular injection [3] | retention time on synovial lining ([3]; 48 h is last time point) [h] | inhibition of MAC assembly (C9 / MAC) |
| --- | --- | --- | --- | --- | --- | --- |
| Myr-GSSKSPSKKKKKKPG-ACP-VSMGKSLSSKVYVM [modified peptide, Ts-pmy-derived peptide modified with a membrane-targeting signal] | milder synovial hyperplasia and inflammatory cell infiltration compared to the AIA-only or original peptide+AIA mice | significantly decreased | significantly weaker | intense staining along the synovial lining even at 48 h after injection | ≥ 48 | – |
| VSMGKSLSSKVYVM [original peptide, tetradecapeptide derived from Trichinella spiralis paramyosin (Ts-pmy)] | severe edema, hyperplasia, and inflammatory cell infiltration compared to normal joints | – | clearly detected | no staining | – | inhibited the assembly of MAC |
